This note sets out measurements from US8288374B2, “Medicinal composition containing benzo[a]phenoxazine compound as the active ingredient for prevention or treatment of protozoal disease” (Hoshi University, priority 2008, dated 2012).

Test [1] relates to Plasmodium berghei NK65 strain. Nature of the test: Cure test by oral administration to mice infected with malaria. Type of test: in vivo. Conditions: for inhibition in vivo at 100 mg/kg: Plasmodium berghei, infected ICR mice, suppression vs control; for inhibition in vivo at 100 mg/kg / Days of survival: oral, 1 dose, 100 mg/kg; for Days of survival: mean days to death minus that of control mice; for Effectiveness in the in vivo malaria test, in words: oral administration to mice infected with rodent malaria. The protocol: In this experiment, rodent malaria parasites (the Plasmodium berghei NK65 strain) were used.
The infected blood to be used was subcultured in ICR female SPF mice infected by intraperitoneal or tail vein administration at 4 to 6 weeks old (20 to 26 g). […] Thereafter, based on the number of red cells (cells/ml) and the rate of infection by the protozoans, the blood was diluted with phys'iological saline such that a density of […] malaria parasites/1 ml dose was attained. This was used for infection of uninfected mice (ICR female mice, 5 weeks old) in an amount of 0.2 ml/20 g body weight, through the tail vein (Day-0). The compound used in the test was dissolved in 10% DMSO solution (a mixture of 1 ml of DMSO and 9 ml of 5% glucose solution).
Each group contained 4 mice, and the compound was orally administered to the mice 24 hours after their infection with malaria (Day-1), in an amount calculated such that 100 mg of the compound was administered per 1 kg of the body weight of a mouse. On the other hand, in terms of cases in which the amount was calculated such that 30 mg of the compound was administered per 1 kg of the body weight of a mouse, the oral administration was carried out a total of three times, that is, 24 hours (Day-1), 48 hours (Day-2) and 72 hours (Day-3) after the infection of malaria.
Blood was collected from the tails of each mouse 96 hours (Day-4) and 144 hours (Day-6) after the infection with malaria, and thin blood films were prepared. Under the microscope, the numbers of infection of malaria parasites in the group to which the compound was administered and the control group (to which the compound was not administered) were measured, and the rates of infection with malaria parasites (Parasitemia) were calculated.
From the rate of infection with malaria parasites calculated as above, the cure rate (Suppression) in the case of administration of the drug was calculated according to the following equation. Cure rate: Suppression (%)=(B−A)/B×100
A: Rate of infection with the protozoans in a mouse to which the present test compound was administered
B: Rate of infection with the parasites in a control mouse (to which the compound was not administered) Days of survival: MSD (day)=C−D
C: the average number of days from the date of infection with malaria to the date of death in the mice to which the present test compound was administered
D: The average number of days from the date of infection with malaria to the date of death in the 4 individuals of control mice (to which the compound was not administered)
Further, by observation of changes in the body weight, hair glossiness and the like of each mouse, side effects such as acute toxicity due to administration of the compound were evaluated.

Test [2] relates to Trypanosoma brucei rhodesiense (STIB 900 strain). Nature of the test: African trypanosome protozoa growth inhibition screening test. Type of test: cell-based. The protocol:
In the present experiment, protozoa of Tripanosoma brucei rhodensiense (STIB 900 Strain), a trypomastigote living in blood stream, was used. The medium used in the experiment was a MEM medium which was sterilized with a filter and supplemented with 25 mM N-2-hydroxyeihylpiperazine-2-ethansulfonic acid (HEPES), 1 g/L glucose, 1% MEM non-essential amino acid, 0.2 mM 2-mercaptoethanol, 2 mM sodium pyruvate, 0.1 mM hypoxanthine, and 15% heat-treated horse serum. The protozoa was cultured in an atmosphere of CO2 concentration 5%, at a temperature of 37° C.
The compounds of the present invention to be used in the present test and the positive control drug (melarsoprol) were dissolved in dimethylsulfoxide (DMSO) to make a test solution of a predetermined concentration.
A medium containing 8×10^3 protozoa, and a test solution containing a drug of a predetermined concentration of a drug-free DMSO were added to wells of a 96-well culture plate, and subsequently, medium was added so that the amount in each well becomes 100 μL. Test solutions were taken by duplicates.
After culturing the culture plate for 72 hours in an incubator, growth inhibition activity was tested. Test was conducted as follows. 10 μL of Alamar Blue aqueous solution was added to each well, and the resultant was further cultured for 2 hours. Next, the culture plate was placed on a fluorescent micro-plate reader (Spectramax Gemeni XS; US Molecular Device), radiated at an excited wavelength of 536 nm. Fluorescent intensity was measured at 588 nm, to calculate the trypanosome protozoa infected rate of the test solution added-group, and of the control group.
(§1) Growth inhibition rate (%)={1−(b−a)/(c−a)}×100 • a: early infection rate • b: infection rate when test solution was added • c: infection rate of the control

Test [3] has as its system Leishmania donovani (MHOM/ET/67/L82 strain). Nature of the test: Leishmania protozoa growth inhibition screening test. Type of test: cell-based. The protocol:
In the present experiment, Leishmania donovani (MHOM/ET/67/L82 strain) was used. Protozoa was subcultured in Syrian Golden hamster, from which an amastigote was obtained. In the experiment, SM medium supplemented with 10% heat-treated bovine fetal serum was used, which was adjusted to pH 5.4, and cultured in an atmosphere of 5% CO2 concentration, at 37° C.
The compounds of the present invention to be used in the present test and the positive control drug (miltefosine) were dissolved in DMSO to make a test solution of a predetermined concentration.
After adding a medium containing a predetermined number of protozoa to wells of a 96-well culture'plate and pre-treating, concentration of the amastigote was measured with CASY cell analysis system (Scharfe, Germany). Then, test solution containing a drug of a predetermined concentration or a drug-free DMSO was added. Test solutions were taken by duplicates.
After culturing the culture plate for 72 hours in an incubator, growth inhibition activity was tested. Test was conducted as follows. 10 μL of Alamar Blue aqueous solution was added to each well, and the resultant was further cultured for 2 hours. Next, the culture plate was placed on a fluorescent micro-plate reader (Spectramax Gemeni XS; US Molecular Device), radiated at an excited wavelength of 536 nm. Fluorescent intensity was measured at 588 nm, and infection rate of leishmania protozoa of the test solution added group and control was calculated.
as §1

Setting [4] is: 96 h, read-out: Cure rate (%) Day-4.
The mark [5] stands for this setting: 144 h, read-out: Cure rate (%) Day-6.
The mark [6] stands for this setting: Table 6, unit inferred, read-out: Trypanosoma brucei rhod.
Where [7] appears, read: Table 6, unit inferred, read-out: Leishmania donovani.

Values after ≈ are worked out from the molar mass of the structure shown. Like-named read-outs stand apart in the source and are kept apart here.

On to `CCN(CC)c1ccc2nc3c4ccccc4c(=Nc4ccc5ccccc5n4)cc-3oc2c1` [Compound 1H, N,N-Diethyl-5-(quinolin-2-ylimino)-5H-benzo[a]phenoxazin-9-amine], for which the values for the inhibition in vivo at 100 mg/kg in test [1] (setting [4]) and in test [1] (setting [5]) were 81% and 71%, respectively. The “Days of survival” value in test [1] was determined as 4.3 days. The EC50 in test [2] (Table 5, 72 hours, Alamar Blue, read-out: 50% Growth inhibition concentration Trypanosoma brucei rhod.) is 4.6 µg/mL (≈ 10.3 µM); in test [3] (Leishmania donovani, Table 5, amastigotes, 72 hours, Alamar Blue, read-out: 50% Growth inhibition concentration Leishmania donovani), 1.25 µg/mL (≈ 2.81 µM).

As for `CCN(CCNS(C)(=O)=O)c1cc(C)c2nc3c4ccccc4c(=Nc4ccncc4)cc-3oc2c1` [Compound 1R, N-Ethyl-N-(2-methansulfonamidylethyl)-11-methyl-5-(pyridine-4-ylimino)-5H-benzo[a]phenoxazin-9-amine], the inhibition in vivo at 100 mg/kg amounted to 100% in test [1] (setting [4]) and 95.7% in test [1] (setting [5]). The “Effectiveness in the in vivo malaria test, in words” value in test [1] is reported as “excellent cure effects”. The “Days of survival” value in test [1] is listed as 15.7 days. Also, the EC50 in test [2] (setting [6]) is 5.34 µg/mL (≈ 10.7 µM); in test [3] (setting [7]), 3.92 µg/mL (≈ 7.81 µM).

In the case of `CCN(CCNS(C)(=O)=O)c1cc(C)c2nc3c4ccccc4c(=Nc4ccccn4)cc-3oc2c1` [Compound 1S, N-Ethyl-N-(2-methansulfonamidylethyl)-11-methyl-5-(pyridine-2-ylimino)-5H-benzo[a]phenoxazin-9-amine], the inhibition in vivo at 100 mg/kg in test [1] (setting [4]) and in test [1] (setting [5]) was 100% each time. The “Effectiveness in the in vivo malaria test, in words” value in test [1] was “excellent cure effects”. Further, the “Days of survival” value in test [1] is given as 11.3 days. In addition, the EC50 in test [2] (setting [6]) came to 0.714 µg/mL (≈ 1.42 µM); in test [3] (setting [7]), 2.09 µg/mL (≈ 4.17 µM).
